Numbered stars: 1 amine (or outer) side, 2 acyl side, 3 side chain; on linkers, the order of the positions; unused ones are H or OH. Bridge positions count the residues as written; N and C are the ends. Square brackets hold non-standard residues; d marks the D form. Peptide text beside a SMILES is read from it. * marks the point of attachment. hPhe(3-Cl-4-CF3) = N[C@@H](CCc1ccc(C(F)(F)F)c(Cl)c1)C(=O)O; X115 = O=C([C@H](CCc1ccc(S(F)(F)(F)(F)F)cc1)N[*:1])[*:2]; hPhe(3-F,4-CF3) = N[C@@H](CCc1ccc(C(F)(F)F)c(F)c1)C(=O)O; hPhe(4-CF3) = N[C@@H](CCc1ccc(C(F)(F)F)cc1)C(=O)O; NMePhe(4-Cl) = CN[C@@H](Cc1ccc(Cl)cc1)C(=O)O; NMePhe(4-Me) = CN[C@@H](Cc1ccc(C)cc1)C(=O)O; Leu(4,5-dehydro) = C=C(C)C[C@H](N)C(=O)O; NMeGly(cPent) = CN[C@H](C(=O)O)C1CCCC1; Phe(3-I) = N[C@@H](Cc1cccc(I)c1)C(=O)O; dαMeGly(allyl) = C=CC[C@@](C)(N)C(=O)O; Ala(cPent) = N[C@@H](CC1CCCC1)C(=O)O; Phe(2-Me) = Cc1ccccc1C[C@H](N)C(=O)O; NMe3Pal = CN[C@@H](Cc1cccnc1)C(=O)O; NMeY = CN[C@@H](Cc1ccc(O)cc1)C(=O)O; NMeCha = CN[C@@H](CC1CCCCC1)C(=O)O; NMeAoc(2) = CCCCCC[C@H](NC)C(=O)O; NMeChg = CN[C@H](C(=O)O)C1CCCCC1; NMeF = CN[C@@H](Cc1ccccc1)C(=O)O; NMeD = CN[C@@H](CC(=O)O)C(=O)O; NMeL = CN[C@@H](CC(C)C)C(=O)O; NMehSer = CN[C@@H](CCO)C(=O)O; NMeV = CN[C@H](C(=O)O)C(C)C; d(β3hA) = C[C@@H](N)CC(=O)O; dNMeS = CN[C@H](CO)C(=O)O; Ac6c = NC1(C(=O)O)CCCCC1; NMeA = CN[C@@H](C)C(=O)O; NMeAib = CNC(C)(C)C(=O)O; Nle = CCCC[C@H](N)C(=O)O; Piperidide = C1CCN(*)CC1; Pra = C#CC[C@H](N)C(=O)O; Pyrrolidide = C1CCN(*)C1; Ac5c = NC1(C(=O)O)CCCC1; Aze = O=C(O)[C@@H]1CCN1; NcPrGly = O=C(O)CNC1CC1; Ac3c = NC1(C(=O)O)CC1; Isopentyl = CC(C)CC*; CF3 = FC(F)(F)*; Sar = CNCC(=O)O
Tested on: Human pancreatic cancer cell line AsPC-1 (G12D mutation Kras)
Assay: AsPC-1 cell growth inhibition (AsPC-1 CGI)
Type: cell-based
Conditions: read-out: AsPC-1 cell growth inhibition, 50% growth inhibitory concentration (IC50 value); 96 hours, CellTiter-Glo, values classified in ranges
Method: Test compounds were serially dilated with dimethyl sulfoxide, and 200 nL was then dispensed to a U-bottom 96-well plate using Labcyte Echo. […] The cell suspension was dispensed to a. plate containing a test compound at 100 μL per well and incubated at 37° C. in a 5% carbon dioxide gas incubator. 96 hours later, 80 μL of CellTiter-Glo (Promega) was added to each well and fluorescence was measured.

SMILES	IC50 [µM]
CC[C@H](C)[C@@H]1NC(=O)[C@H](CC(C)C)N(C)C(=O)C[C@@H](C(=O)N2CCCCC2)N(C)C(=O)[C@H](CCOC)N(C)C(=O)C2(CCCC2)NC(=O)[C@@H]2CCCN2C(=O)[C@H](CCc2ccc(C(F)(F)F)c(Cl)c2)NC(=O)CN(C)C(=O)[C@H](CC2CCCCC2)N(C)C(=O)CN(C)C(=O)CN(C)C1=O [Compound 744] ([NMeL]I[Sar][Sar][NMeCha][Sar][hPhe(3-Cl-4-CF3)]P[Ac5c][NMehSer](Me)[NMeD]-Piperidide; lactam N-11)	> 0.5
CC[C@H](C)[C@@H]1NC(=O)[C@H](CC(C)C)N(C)C(=O)C[C@@H](C)NC(=O)[C@H](CC(C)C)N(C)C(=O)C2(CCCCC2)NC(=O)[C@@H]2CCCN2C(=O)[C@H](CCc2ccc(C(F)(F)F)c(F)c2)NC(=O)CN(C)C(=O)[C@H](CC2CCCCC2)N(C)C(=O)CN(C)C(=O)CN(C)C1=O [Compound 231] (cyclo([Ac6c][NMeL][d(β3hA)][NMeL]I[Sar][Sar][NMeCha][Sar][hPhe(3-F,4-CF3)]P))	> 0.5
CC[C@H](C)[C@@H]1NC(=O)[C@H](CC(C)C)N(C)C(=O)C[C@@H](C(=O)N2CCCCC2)N(C)C(=O)[C@H](C2CCCCC2)N(C)C(=O)[C@H](C)NC(=O)[C@@H]2CCCN2C(=O)[C@H](CCc2ccc(C(F)(F)F)c(Cl)c2)NC(=O)CN(C)C(=O)[C@H](CC2CCCCC2)N(C)C(=O)CN(C)C(=O)CN(C)C1=O [Compound 591] ([NMeL]I[Sar][Sar][NMeCha][Sar][hPhe(3-Cl-4-CF3)]PA[NMeChg][NMeD]-Piperidide; lactam N-11)	> 0.5
C=CC[C@@]1(C)NC(=O)[C@@H]2CCCN2C(=O)[C@H](CCc2ccc(C(F)(F)F)c(Cl)c2)NC(=O)CN(C)C(=O)[C@H](CC2CCCCC2)N(C)C(=O)CN(C)C(=O)CN(C)C(=O)[C@H]([C@@H](C)CC)NC(=O)[C@H](CC(C)C)N(C)C(=O)C[C@@H](C)NC(=O)[C@H](C(C)C)N(C)C1=O [Compound 665] (cyclo(I[Sar][Sar][NMeCha][Sar][hPhe(3-Cl-4-CF3)]P[dαMeGly(allyl)][NMeV][d(β3hA)][NMeL]))	> 0.5
CC[C@H](C)[C@@H]1NC(=O)[C@H](C)N(C)C(=O)C[C@@H](C)NC(=O)[C@H](C(C)C)N(C)C(=O)[C@H](Cc2ccccc2)N(C)C(=O)[C@H](CC(C)C)N(C)C(=O)[C@H](CCc2ccc(C(F)(F)F)cc2)NC(=O)CN(C)C(=O)[C@H](Cc2ccc(Cl)cc2)N(C)C(=O)CN(C)C(=O)[C@@H]2CCN2C1=O [Compound 71] (cyclo([Aze][Sar][NMePhe(4-Cl)][Sar][hPhe(4-CF3)][NMeL][NMeF][NMeV][d(β3hA)][NMeA]I))	> 0.5
CC[C@H](C)[C@@H]1NC(=O)[C@H](CC(C)C)N(C)C(=O)C[C@@H](C(=O)N2CCCCC2)N(C)C(=O)[C@H](C2CCCC2)N(C)C(=O)C2(CCCC2)NC(=O)[C@@H](COCCC(C)C)N(C)C(=O)[C@H](CCc2ccc(C(F)(F)F)c(Cl)c2)NC(=O)CN(C)C(=O)[C@H](CC2CCCCC2)N(C)C(=O)[C@@H]2CCN2C(=O)[C@H](C)N(C)C1=O [Compound 1443] ([NMeL]I[NMeA][Aze][NMeCha][Sar][hPhe(3-Cl-4-CF3)][dNMeS](Isopentyl)[Ac5c][NMeGly(cPent)][NMeD]-Piperidide; lactam N-11)	> 0.5
CC(C)C[C@H]1C(=O)N[C@@H](CC2CCCC2)C(=O)N(C)CC(=O)N(C)CC(=O)N(C)[C@@H](CC2CCCCC2)C(=O)N(C)CC(=O)N[C@@H](CCc2ccc(C(F)(F)F)c(Cl)c2)C(=O)N2CCC[C@H]2C(=O)NC2(CCCC2)C(=O)N(C)[C@@H](C(C)C)C(=O)N(C)[C@H](C(=O)N2CCCCC2)CC(=O)N1C [Compound 627] ([NMeL][Ala(cPent)][Sar][Sar][NMeCha][Sar][hPhe(3-Cl-4-CF3)]P[Ac5c][NMeV][NMeD]-Piperidide; lactam N-11)	> 0.5
C#CC[C@@H]1NC(=O)[C@H](Cc2cccc(I)c2)NC(=O)CN(C)C(=O)[C@H](Cc2ccc(OC(F)(F)F)cc2)N(C)C(=O)[C@@H]2CCN2C(=O)[C@H](C)N(C)C(=O)[C@H]([C@@H](C)CC)NC(=O)[C@H](CC(C)C)N(C)C(=O)C[C@@H](C(=O)N2CCCCC2)N(C)C(=O)[C@H](CC(C)C)NC(=O)C(C)(C)N(C)C1=O [Compound 1288] ([NMeL]I[NMeA][Aze][NMeY](CF3)[Sar][Phe(3-I)][Pra][NMeAib]L[NMeD]-Piperidide; lactam N-11)	> 0.5
CC[C@H](C)[C@@H]1NC(=O)[C@H](C)N(C)C(=O)C[C@@H](C(=O)N2CCCC2)N(C)C(=O)[C@H](C2CCCCC2)N(C)C(=O)C2(CCCC2)NC(=O)[C@H](Cc2cccnc2)N(C)C(=O)[C@H](CCc2ccc(C(F)(F)F)c(Cl)c2)NC(=O)CN(C)C(=O)[C@H](CC2CCCCC2)N(C)C(=O)[C@@H]2CCN2C(=O)CN(C)C1=O [Compound 1810] ([NMeA]I[Sar][Aze][NMeCha][Sar][hPhe(3-Cl-4-CF3)][NMe3Pal][Ac5c][NMeChg][NMeD]-Pyrrolidide; lactam N-11)	> 0.5
CC[C@H](C)[C@@H]1NC(=O)[C@H](CC(C)C)N(C)C(=O)C[C@@H](C)NC(=O)[C@H](CC(C)C)N(C)C(=O)C2(CCCC2)NC(=O)[C@@H]2CCCN2C(=O)[C@H](CCc2ccc(S(F)(F)(F)(F)F)cc2)NC(=O)CN(C)C(=O)[C@H](CC2CCCCC2)N(C)C(=O)CN(C)C(=O)CN(C)C1=O [Compound 1021] (cyclo([Ac5c][NMeL][d(β3hA)][NMeL]I[Sar][Sar][NMeCha][Sar][X115]P))	> 0.5
CC[C@H](C)[C@@H]1NC(=O)[C@H](C)N(C)C(=O)C[C@@H](C)NC(=O)[C@H](C(C)C)N(C)C(=O)[C@H](Cc2ccccc2)N(C)C(=O)[C@H](CC(C)C)N(C)C(=O)[C@H](CCc2ccc(C(F)(F)F)cc2)NC(=O)CN(C)C(=O)[C@H](Cc2ccc(Cl)cc2)N(C)C(=O)[C@@H]2CCN2C(=O)CN(C)C1=O [Compound 913] (cyclo([Aze][NMePhe(4-Cl)][Sar][hPhe(4-CF3)][NMeL][NMeF][NMeV][d(β3hA)][NMeA]I[Sar]))	> 0.5
CCCCCC[C@H]1C(=O)N[C@@H]([C@@H](C)CC)C(=O)N(C)CC(=O)N2CC[C@H]2C(=O)N(C)[C@@H](Cc2ccc(OC)cc2)C(=O)N(C)CC(=O)N[C@@H](Cc2cccc(I)c2)C(=O)N[C@@H](CCCC)C(=O)N(C)C(C)(C)C(=O)N[C@@H](CC(C)C)C(=O)N(C)[C@H](C(=O)N2CCCCC2)CC(=O)N1C [Compound 1417] ([NMeAoc(2)]I[Sar][Aze][NMeY](Me)[Sar][Phe(3-I)][Nle][NMeAib]L[NMeD]-Piperidide; lactam N-11)	> 0.5
CC[C@H](C)[C@@H]1NC(=O)[C@H](C)N(C)C(=O)C[C@@H](C(=O)N2CCCCC2)NC(=O)[C@H](CC(C)C)N(C)C(=O)[C@H](Cc2ccccc2)N(C)C(=O)[C@H](CC(C)C)NC(=O)[C@H](CCc2ccc(C(F)(F)F)c(Cl)c2)NC(=O)CN(C)C(=O)[C@H](Cc2ccc(Cl)cc2)N(C)C(=O)CN(C)C(=O)CN(C)C1=O [Compound 861] ([NMeA]I[Sar][Sar][NMePhe(4-Cl)][Sar][hPhe(3-Cl-4-CF3)]L[NMeF][NMeL]D-Piperidide; lactam N-11)	> 0.5
CC[C@H](C)[C@@H]1NC(=O)[C@H](CC(C)C)N(C)C(=O)C[C@@H](C(=O)N2CCCCC2)N(C)C(=O)[C@H](C(C)C)N(C)C(=O)C2(CC2)NC(=O)[C@@H]2CCCN2C(=O)[C@H](CCc2ccc(C(F)(F)F)c(Cl)c2)NC(=O)CN(C)C(=O)[C@H](CC2CCCCC2)N(C)C(=O)CN(C)C(=O)CN(C)C1=O [Compound 468] ([NMeL]I[Sar][Sar][NMeCha][Sar][hPhe(3-Cl-4-CF3)]P[Ac3c][NMeV][NMeD]-Piperidide; lactam N-11)	> 0.5
CC[C@H](C)[C@@H]1NC(=O)[C@H](CC(C)C)N(C)C(=O)C[C@@H](C)NC(=O)[C@H](C2CCCC2)N(C)C(=O)[C@H](C)NC(=O)[C@@H]2CCCN2C(=O)[C@H](CCc2ccc(C(F)(F)F)c(Cl)c2)NC(=O)CN(C)C(=O)[C@H](Cc2ccc(C)cc2)N(C)C(=O)[C@@H]2CCN2C(=O)[C@H](C)N(C)C1=O [Compound 1221] (cyclo(A[NMeGly(cPent)][d(β3hA)][NMeL]I[NMeA][Aze][NMePhe(4-Me)][Sar][hPhe(3-Cl-4-CF3)]P))	> 0.5
CC[C@H](C)[C@@H]1NC(=O)[C@H](CC(C)C)N(C)C(=O)C[C@@H](C)NC(=O)[C@H](C(C)C)N(C)C(=O)C2(CCCC2)NC(=O)[C@@H]2CCCN2C(=O)[C@H](CCc2ccc(C(F)(F)F)c(Cl)c2)NC(=O)CN(C)C(=O)[C@H](CC2CCCCC2)N(C)C(=O)CN(C)C(=O)CN(C2CC2)C1=O [Compound 542] (cyclo([Ac5c][NMeV][d(β3hA)][NMeL]I[NcPrGly][Sar][NMeCha][Sar][hPhe(3-Cl-4-CF3)]P))	> 0.5
CC[C@H](C)[C@@H]1NC(=O)[C@H](CC(C)C)N(C)C(=O)C[C@@H](C(=O)N2CCCCC2)N(C)C(=O)[C@H](CC(C)C)NC(=O)C(C)(C)N(C)C(=O)[C@H](Cc2ccccc2C)NC(=O)[C@H](Cc2cccc(I)c2)NC(=O)CN(C)C(=O)[C@H](Cc2ccc(C)cc2)N(C)C(=O)[C@@H]2CCN2C(=O)CN(C)C1=O [Compound 335] ([NMeL]I[Sar][Aze][NMePhe(4-Me)][Sar][Phe(3-I)][Phe(2-Me)][NMeAib]L[NMeD]-Piperidide; lactam N-11)	> 0.5
CC[C@H](C)[C@@H]1NC(=O)[C@H](CC(C)C)N(C)C(=O)C[C@@H](C)NC(=O)[C@H](C2CCCC2)N(C)C(=O)[C@H](C(C)C)NC(=O)[C@@H]2CCCN2C(=O)[C@H](CCc2ccc(C(F)(F)F)c(Cl)c2)NC(=O)CN(C)C(=O)[C@H](Cc2ccc(C)cc2)N(C)C(=O)[C@@H]2CCN2C(=O)[C@H](C)N(C)C1=O [Compound 933] (cyclo([Aze][NMePhe(4-Me)][Sar][hPhe(3-Cl-4-CF3)]PV[NMeGly(cPent)][d(β3hA)][NMeL]I[NMeA]))	> 0.5
C=C(C)C[C@@H]1NC(=O)[C@H](Cc2cccc(I)c2)NC(=O)CN(C)C(=O)[C@H](Cc2ccc(Cl)cc2)N(C)C(=O)[C@@H]2CCN2C(=O)CN(C)C(=O)[C@H]([C@@H](C)CC)NC(=O)[C@H](CC(C)C)N(C)C(=O)C[C@@H](C(=O)N2CCCCC2)N(C)C(=O)[C@H](CC(C)C)NC(=O)C(C)(C)N(C)C1=O [Compound 1414] ([NMeL]I[Sar][Aze][NMePhe(4-Cl)][Sar][Phe(3-I)][Leu(4,5-dehydro)][NMeAib]L[NMeD]-Piperidide; lactam N-11)	> 0.5

From patent US20240148821A1, “PHARMACEUTICAL USE OF CYCLIC PEPTIDE COMPOUND” (CHUGAI SEIYAKU KABUSHIKI KAISHA, priority 2021, published 2024)
